The values that follow come from patent US20250313530A1, “SMALL MOLECULE INHIBITORS OF INTERLEUKIN-4 AND USES THEREOF” (Trustees of Boston University, priority 2024, published 2025).

By % Inhibition is commonly meant the drop in the measured response relative to a control, in per cent. A lower % Inhibition goes with little suppression. As usually defined, the EC50 is the concentration that produces a half-maximal response. As a reminder, the inhibition is the drop in the measured response relative to a control, in per cent.

The target in the experiment is T1, IL-4 (Homo sapiens, UniProt P05112).
T1 construct: purchased Acros Biosystems IL4-H4218; host or cells: HEK-293
T1 sequence (P05112 25-153): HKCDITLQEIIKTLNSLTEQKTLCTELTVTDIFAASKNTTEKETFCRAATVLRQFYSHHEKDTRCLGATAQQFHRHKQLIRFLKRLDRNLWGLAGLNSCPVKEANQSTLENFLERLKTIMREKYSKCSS
In words: HEK-Blue IL-4/IL-13 reporter assay, IL-4 inhibition. Type of experiment: cell-based. Conditions: for % Inhibition / inhibition at 10 µM: 10 μM, IL-4, HEK Blue IL-4/IL-13 reporter assay; for EC50: HEK Blue IL-4/IL-13 reporter assay, read-out: EC50; for inhibition at 10 µM: HEK-Blue. The procedure: HEK-Blue IL-4/IL-13 Inhibition assay. HEK-Blue IL-4/IL-13 reporter cell lines were purchased from Invivogen and cultured in DMEM with 10% Heat Inactivated Fetal Bovine Serum (FBS), 100 U/ml-100 μg/ml Pen-Strep, 10 μg/ml blasticidin, 100 μg/ml Normocin and 100 μg/ml Zeocin. Cells were tested for secreted embryonic alkaline phosphatase (SEAP) production induced by IL-4 alone prior to small molecule screening.
22.5 μl of small molecule in DMEM 4% DMSO was added to 22.5 μl of 1 ng/ml IL-4 in DMEM in a non-binding 96-well reaction plate for 30 minutes at room temperature. The reaction plate was further incubated for 30-60 min at 37° C. HEK-Blue IL-4/IL-13 reporter cell line was used between passages 11-17. […] Measurements were done in triplicate. The plate was incubated for ˜22-24 hours at 37° C./5% CO2. Quanti-Blue dye was prepared as per the manufacturer's recommendation and 160 μl was dispensed in each well of a 96-well plate (avoid edges to avoid evaporation), 40 μl of cell supernatant was added to the same plate and incubated for 3 hours at 37° C./5% CO2. Optical density was then measured at 650 nm using Molecular Devices SpectraMax M5 Microplate reader. Data was analyzed and plotted using GraphPad Prism 9.2.0.
On the technique in general: A reporter such as luciferase makes a cellular process visible.

Structures are written as SMILES. Values joined by “and” are separate entries in the source; they are usually repeats but may differ in a detail not shown here. Identical values can stand only once. Like-named read-outs stand apart in the source and are kept apart here.

For `N#CC1C(=N)N=C(c2ccc(Br)cc2)C=C1c1ccc(O)c(O)c1` (stereo not shown) [Compound 3, 6-(4-bromophenyl)-4-(3,4-dihydroxyphenyl)-2-imino-2,3-dihydropyridine-3-carbonitrile], the “% Inhibition” value was 63.3 ± 2.54% and 93.3 ± 2.54%. Further, the EC50 (dose response, IL-4 inhibition) is 1.3 ± 0.39 µM.
As for `N#Cc1c(-c2ccc(O)c(O)c2)cc(C2CC2)nc1N` [2A/55, 2-amino-6-cyclopropyl-4-(3,4-dihydroxyphenyl) nicotinonitrile], the inhibition at 10 µM (read-out: % Inhibition) turned out to be 2.47 ± 14.2%.
`Cc1c(-c2ccc(F)cc2)[nH]c(=N)c(C#N)c1-c1ccc(O)c(O)c1` [Compound 20, 4-(3,4-dihydroxyphenyl)-6-(4-fluorophenyl)-2-imino-5-methyl-1,2-dihydropyridine-3-carbonitrile]: the inhibition at 10 µM (read-out: % Inhibition) turned out to be 97.7%. Where the note is “dose response, IL-4 inhibition”, the “potency compared with Nico-52 (in words)” value is “less potency than Nico-52” and the EC50 came out at 2.69 ± 0.57 µM.
`N#Cc1c(-c2cccc(O)c2)cc(-c2ccc(F)cc2)[nH]c1=O` [Compound 40, 6-(4-fluorophenyl)-4-(3-hydroxyphenyl)-2-oxo-1,2-dihydropyridine-3-carbonitrile] returned an inhibition at 10 µM of 64.3 ± 12.3%.
The molecule `N#Cc1c(-c2ccc(O)c(I)c2)cc(-c2ccc(F)cc2)[nH]c1=N` [Compound 53, 6(4-fluorophenyl)-4-(4-hydroxy-3-iodophenyl)-2-imino-1,2-dihydropyridine-3-carbonitrile] returned an inhibition at 10 µM of 58.9 ± 19.9%.
For the molecule `Cc1ccc(-c2cc(-c3ccc(F)cc3)[nH]c(=N)c2C#N)o1` [Compound 44, 6-(4-fluorophenyl)-2-imino-4-(5-methylfuran-2-yl)-1,2-dihydropyridine-3-carbonitrile], the inhibition at 10 µM (read-out: % Inhibition) is 33.9 ± 21.4%.
Turning to `N#Cc1c(-c2ccc(O)c(O)c2)cc(-c2cccnc2)[nH]c1=N` [Compound 7, 4-(3,4-dihydroxyphenyl)-6-imino-1,6-dihydro-[2,3′-bipyridine]-5-carbonitrile], the “% Inhibition” value came to 84.3 ± 1.11%. The inhibition at 10 µM (read-out: % Inhibition) came to 94.3%. Further, the EC50 (dose response, IL-4 inhibition) is 2.02 ± 0.97 µM.
Consider `N#Cc1c(-c2ccc(O)c(O)c2)cc(-c2ccccc2F)nc1N` [Compound 2, 2-amino-4-(3A-dihydroxyphenyl)-6-(2-fluorophenyl)nicotinonitrile], for which the “% Inhibition” value stood at 40.0 ± 5.87%.
On to `Cc1ccc(-c2cc(-c3ccc(F)cc3)[nH]c(=N)c2C#N)s1` [Compound 45, 6-(4-fluorophenyl)-2-imino-4-(5-methylthiophen-2-yl)-1,2-dihydropyridine-3-carbonitrile], for which the inhibition at 10 µM (read-out: % Inhibition) was 37.5 ± 19.9%.
As for `N#Cc1c(-c2ccc(O)c(O)c2)cc(-c2ccc(-n3ccnc3)cc2)nc1N` [Compound 16, 6-(4-(1H-imidazol-1-yl)phenyl)-2-amino-4-(3,4-dihydroxyphenyl)nicotinonitrile], the “% Inhibition” value is reported as “No inhibition”.
The molecule `N#CC1C(=O)N=C(c2ccc(O)cc2)C=C1c1ccc(O)c(O)c1` (stereo not shown) [Compound 32, 4-(3,4-dihydroxyphenyl)-6-(4-hydroxyphenyl)-2-oxo-2,3-dihydropyridine-3-carbonitrile] registered an inhibition at 10 µM of 94.1%.
In the case of `N#Cc1c(-c2ccc(Cl)c(Cl)c2)cc(-c2ccc(F)cc2)[nH]c1=O` [Compound 34, 4-(3,4-dichlorophenyl)-6-(4-fluorophenyl)-2-oxo-1,2-dihydropyridine-3-carbonitrile], the inhibition at 10 µM was 44.2 ± 11.1%.
Consider `N#Cc1c(-c2ccccc2)cc(-c2ccc(F)cc2)[nH]c1=N` [Compound 43, 6-(4-fluorophenyl)-2-imino-4-phenyl-1,2-dihydropyridine-3-carbonitrile], for which the inhibition at 10 µM (read-out: % Inhibition) came out at 6.13 ± 9.13%.
Turning to `Cc1cc(-c2ccc(O)c(O)c2)c(C#N)c(N)n1` [Compound 13, 2-amino-4-(3,4-dihydroxyphenyl)-6-methylnicotinonitrile], under “read-out: % Inhibition”, the inhibition at 10 µM turned out to be 70.2%.
Take `COc1cc(-c2cc(-c3ccc(F)cc3)[nH]c(=O)c2C#N)ccc1O` [Compound 42, 6(4-fluorophenyl)-4-(4-hydroxy-3-methoxyphenyl)-2-oxo-1,2-dihydropyridine-3-carbonitrile]: the inhibition at 10 µM was found to be 67.6 ± 4.88%.
As to `N#Cc1c(-c2ccccc2)cc(-c2ccc(F)cc2)[nH]c1=O` [Compound 35, 6-(4-fluorophenyl)-2-oxo-4-phenyl-1,2-dihydropyridine-3-carbonitrile], for the setting “read-out: % Inhibition”, the inhibition at 10 µM came to 27.6 ± 25.1%.
On to `N#Cc1c(-c2ccc(O)c(O)c2)cc(-c2cccc(F)c2)nc1N` [Compound 1, 2-amino-4-(3A-dihydroxyphenyl)-6-(3-fluorophenyl)nicotinonitrile], for which the “% Inhibition” value is on record as “No inhibition”.
The molecule `N#Cc1c(-c2cccnc2)cc(-c2ccc(F)cc2)[nH]c1=N` [Compound 50, 6′-(4-fluorophenyl)-2′-imino-1′,2′-dihydro-[3,4′-bipyridine]-3′-carbonitrile] had an inhibition at 10 µM of 10 ± 17.2%.
Consider `CN(C)c1ccc(-c2cc(-c3ccc(O)c(O)c3)c(C#N)c(N)n2)cc1` [Compound 17, 2-amino-4-(3,4-dihydroxyphenyl)-6-(4-(dimethylamino)phenyl)nicotinonitrile], for which the inhibition at 10 µM (read-out: % Inhibition) is 22.9 ± 1.48%.
Regarding `Cc1ccc(-c2cc(-c3ccc(F)cc3)[nH]c(=O)c2C#N)o1` [Compound 37, 6(4-fluorophenyl)-4-(5-methylfuran-2-yl)-2-oxo-1,2-dihydropyridine-3-carbonitrile], the inhibition at 10 µM (read-out: % Inhibition) amounted to 0.48 ± 17.1%.
Consider `N#Cc1c(-c2ccccc2O)cc(-c2ccc(F)cc2)nc1N` [Compound 47, 2-amino-6-(4-fluorophenyl)-4-(2-hydroxyphenyl)nicotinonitrile], for which the inhibition at 10 µM (read-out: % Inhibition) came out at 98.8 ± 1.54%. Further, the EC50 (dose response, IL-4 inhibition) was 3.4 µM and 3.45 µM.
`N#Cc1c(-c2ccc(O)c(Br)c2)cc(-c2ccc(F)cc2)[nH]c1=N` [Compound 52, 4-(3-bromo-4-hydroxyphenyl)-6(4-fluorophenyl)-2-imino-1,2-dihydropyridine-3-carbonitrile] returned an inhibition at 10 µM of 58.8 ± 16.5%.
`N#Cc1c(-c2ccccc2O)cc(-c2ccc(F)cc2)nc1O` [Compound 39, 6-(4-fluorophenyl)-2-hydroxy-4-(2-hydroxyphenyl)nicotinonitrile] gave an inhibition at 10 µM of 100%. For the same molecule, the EC50 (dose response, IL-4 inhibition) turned out to be 1.75 µM.
On to `N#CC1C(=N)N=C(c2cnccn2)C=C1c1ccc(O)c(O)c1` (stereo not shown) [Compound 9, 4-(3,4-dihydroxyphenyl)-2-imino-6-(pyrazin-2-yl)-2,3-dihydropyridine-3-carbonitrile], for which the inhibition at 10 µM (read-out: % Inhibition) worked out at 64.2 ± 13.4%.
As to `N#Cc1c(-c2ccc(O)c(O)c2)cc(-c2ccc(F)cc2)[nH]c1=O` [Compound 19, 4-(3,4-dihydroxyphenyl)-6-(4-fluorophenyl)-2-oxo-1,2-dihydropyridine-3-carbonitrile], where the note is “read-out: % Inhibition”, the inhibition at 10 µM turned out to be 71.2 ± 5.6%.
Turning to `Cc1ccc(N2CCCCC2)cc1` [Compound 18], the inhibition at 10 µM (read-out: % Inhibition) stood at 88.2 ± 13.9%.
On the same count and under the same terms, the value for `N#CC1C(=O)N=C(c2ccc(-c3ccccc3)cc2)C=C1c1ccc(O)c(O)c1` (stereo not shown) [Compound 31, 6-([1,1′-biphenyl]-4-yl)-4-(3,4-dihydroxyphenyl)-2-oxo-2,3-dihydropyridine-3-carbonitrile] was 68.7 ± 9.84%; that for `N#Cc1c(-c2ccc(O)c(C(=O)O)c2)cc(-c2ccc(F)cc2)[nH]c1=N` [Compound 51, 5-(3-cyano-6-(4-fluorophenyl)-2-imino-1,2-dihydropyridin-4-yl)-2-hydroxybenzoic acid] was 54.6 ± 11.6%.
The molecule `COc1cc(-c2cc(-c3ccc(F)cc3)[nH]c(=N)c2C#N)ccc1O` [Compound 48, 6-(4-fluorophenyl)-4-(4-hydroxy-3-methoxyphenyl)-2-imino-1,2-dihydropyridine-3-carbonitrile] gave an inhibition at 10 µM of 100 ± 0.49%. Also, the EC50 (dose response, IL-4 inhibition) was 8.4 µM and 6.4 µM.
Consider `COc1ccc(-c2cc(-c3ccc(F)cc3)[nH]c(=N)c2C#N)cc1O` [Compound 49, 6-(4-fluorophenyl)-4-(3-hydroxy-4-methoxyphenyl)-2-imino-1,2-dihydropyridine-3-carbonitrile], for which testing at 10 µM gave an inhibition of 82.2 ± 7.2%. Besides, the EC50 (dose response, IL-4 inhibition) amounted to 4.02 ± 1.85 µM.
With `N#Cc1c(-c2ccc(O)c(O)c2)cc(-c2ccco2)nc1N` [Compound 8, 2-amino-4-(3,4-dihydroxyphenyl)-6-(furan-2-yl)nicotinonitrile], the “% Inhibition” value was “No inhibition”.
Take `N#Cc1c(-c2ccc(O)c(O)c2)cc(C2CCCCC2)nc1N` [Compound 12, 2-amino-6-cyclohexyl-4-(3,4-dihydroxyphenyl)nicotinonitrile]: the “% Inhibition” value came out at 48.4 ± 5.80% and the inhibition at 10 µM stood at 49.4%.
`N#Cc1c(-c2ccc(O)c(O)c2)cc(-c2ccc3ccccc3c2)[nH]c1=N` [Compound 11, 4-(3,4-dihydroxyphenyl)-2-imino-6-(naphthalen-2-yl)-1,2-dihydropyridine-3-carbonitrile] displayed an inhibition at 10 µM of 54.7 ± 8.42%.
